In patent publication US20220221445A1, “USES OF PATIENT-DERIVED INTESTINAL ORGANOIDS FOR CELIAC DISEASE DIAGNOSIS SCREENING AND TREATMENT” (The Board of TrusteesoftheLelandStanfordJuniorUniversity, priority 2019, published 2022):

Tested on: active CeD organoids
Assay: IL-15 expression and IL-15 gain-of-function in CeD organoids
Format: cell-based, human
Details: gain-of-function treatment
Excerpt: IL-15 loss-of-function is studied in gliadin-treated, active CeD organoids +/− IL-15 neutralization by soluble recombinant IL-15 receptor (soluble hIL15Rα, R&D #7194-IR) or anti-human IL-15 neutralizing antibody (R&D #MAB647). Endpoints include inhibition of the following gliadin-induced responses: (1) HLA-DQ2:gliadin tetramer-positive T cell abundance by FACS, (2) tetramer(+) CD4^+ T cell or tetramer(−) CD8^+ IEL activation by scRNA-seq and Nanostring digital transcript counting of FACS-sorted immune subsets and (3) inhibition of gliadin-induced epithelial apoptosis and proliferation. Gain-of-function recombinant IL-15 treatment (R&D #247-ILB) of CeD organoids enhances gliadin-induced (1) expansion of HLA-DQ2:gliadin tetramer^82-positive T cells by FACS, (2) activation of these tetramer(+) CD4^+ T cells or tetramer(−) CD8^+ IELs by scRNA-seq and FACS/Nanostring analysis of immune subsets and (3) induction of epithelial apoptosis and proliferation.

Substance: recombinant IL-15: recombinant IL-15 (R&D #247-ILB)
- effect on gliadin-induced tetramer-positive T cell expansion, T cell activation, epithelial apoptosis and proliferation: enhances
